Article PMC11758221, “Late-Stage Minimal Labeling of Peptides and Proteins for Real-Time Imaging of Cellular Trafficking” (ACS Central Science, 2024)
Like-named read-outs stand apart in the source and are kept apart here. One block for each molecule: values may come before it. Where a SMILES comes first, the peptide text is derived from it. Where no end group is shown, it is not given here. The star is where a group is joined. X1 = O=[N+]([O-])c1ccc(*)c2nsnc12

Assays:
[1] = Stability of labeled peptide with reducing bioanalytes (HPLC); type: physicochemical; conditions: peptide 250 µM in PBS pH 7.8, 37 °C
Experimental: 5 mM gl u tath i on e >95% >95% >95%
Figure S8. Stability analysis of P1-SNBD under physiological conditions. […]

[2] = Chemical stability in PBS, cell culture media and reducing environments; type: physicochemical
Experimental: Next, we investigated the optical properties and stability of the S-aryl linkage in the two labeled peptides P1-SNBD and cP1-SNBD. We examined their chemical stability after incubation in phosphate buffered saline (PBS, pH 7.0) at 25 °C and cell culture media at 37 °C (Figures S6 and S7) as well as different biologically relevant reducing environments (Figure S8). […] Finally, we measured the emission spectra of P1-SNBD and cP1-SNBD and confirmed that the two peptides retained the fluorogenic behavior of benzodiazoles (Figure S9).

Human red blood cells = assay: Haemolysis assay; type: cell-based
Experimental: H aemolysis assays. […] H u man red bl ood cel l s w ere separated f rom seru m an d w ash ed i n ph osph ate- bu ff ered sal i n e (P B S , pH 7.4) with 4–5 ti mes cen tri f u gati on at 4000 rpm f o r 1 mi n . E ryth rocytes w ere th en resu spended in PBS as a 0.5% (v/v) sol u ti on , an d co- i n cu bated w i th seri al l y di l u ted pepti des i n a 96-w el l pl ate f o r 1 h at 37 °C . […] PBS and […]
0 .0 1 % (v /v ) Tri to n X-100 w ere u sed as con trol s to establ i sh 0% an d 100% of h aemol ysis, respecti vel y. […]

[3] = test system: RAW264.7 macrophages expressing the chemokine receptor CCR2; assay: Confocal imaging of receptor-mediated endocytosis of the labeled chemokine; type: cell-based, mouse; conditions: RAW264.7 cells, 4 μM, 1 h
Excerpt: Figure 6 Site-selective mCCL2 chemokine labeling and real-time imaging of receptor-mediated endocytosis in live macrophages. A) Schematic representation of the chemokine mCCL2 (PDB: 1DOK) depicting the incorporation of SNBD at the C-terminal end. B) Coomassie-stained and in-gel fluorescence scanning of unlabeled mCCL2, mCCL2-SNBD, and the Pd-SNBD complex. C) Mass spectrometry analysis of unlabeled mCCL2 and mCCL2-SNBD proteins. D) Representative fluorescence confocal microscopy images of RAW264.7 cells after incubation with mCCL2-SNBD for 1 h. Left panel: untreated cells; middle panel: cells treated with mCCL2-SNBD (4 μM); right panel: cells treated with mCCL2-SNBD (4 μM) and the CCR2 antagonist RS102895 (40 μM) (exc/em: 405/515 nm). Insets show the corresponding brightfield images. Scale bars: 25 μm. […]
Next, we acquired fluorescence microscopy images in live RAW264.7 macrophages as a murine macrophage cell line expressing the chemokine receptor CCR2.[64] We incubated the macrophages with mCCL2-SNBD, and fluorescence images were taken after 1 hour without any washing steps. […]
[…] Th e si gn al s w ere recorded as mi l l i degrees at 25 °C , an d th e mean resi du e el l i pti ci ty (MR E ) w as cal cu l ated accordi n g to [θ] […]

[4] = human red blood cells 0.5% (v/v) in PBS pH 7.4, 1 h at 37 °C, haemoglobin absorbance 405 nm, 0.01% Triton X-100 = 100%, Hill fit with maximum constrained to 100%, read-out: hemolytic activity EC50
[5] = red cells of human, 1 h, pH 7.4

Peptide stability, percentage relative to peptide without bioanalyte ([1]; 1 mM NADH, 3 h): > 95% | Peptide stability, percentage relative to peptide without bioanalyte ([1]; 1 mM NADH, 24 h): > 95% | Peptide stability, percentage relative to peptide without bioanalyte ([1]; 1 mM NADH, 48 h): > 95% | Peptide stability, percentage relative to peptide without bioanalyte ([1]; 5 mM glutathione, 3 h): > 95% | Peptide stability, percentage relative to peptide without bioanalyte ([1]; 5 mM glutathione, 24 h): > 95% | Peptide stability, percentage relative to peptide without bioanalyte ([1]; 5 mM glutathione, 48 h): > 95% | chemical stability ([2]; cell culture media at 37 °C): no major degradation | chemical stability ([2]; different biologically relevant reducing environments): no major degradation | chemical stability ([2]; phosphate buffered saline (PBS, pH 7.0) at 25 °C): no major degradation
Molecule: CC(C)C[C@H](NC(=O)[C@H](Cc1ccc(O)cc1)NC(=O)[C@H](CCCNC(=N)N)NC(=O)[C@H](CO)NC(=O)[C@H](CSc1ccc([N+](=O)[O-])c2nsnc12)NC(=O)[C@H](C)NC(=O)[C@H](Cc1ccc(O)cc1)NC(=O)[C@H](CC(C)C)NC(=O)[C@@H](N)CCCCN)C(N)=O [P1-SNBD] (H-KLYAC(X1)SRYL-NH2)

Molecule: N=C(N)NCCC[C@H](NC(=O)CNC(=O)[C@@H](N)Cc1ccc(O)cc1)C(=O)N[C@@H](CCCCN)C(=O)N[C@@H](CCCCN)C(=O)N[C@@H](CCCNC(=N)N)C(=O)N[C@@H](CCCNC(=N)N)C(=O)N[C@@H](CCC(N)=O)C(=O)N[C@@H](CCCNC(=N)N)C(=O)N[C@@H](CCCNC(=N)N)C(=O)N[C@@H](CCCNC(=N)N)C(=O)N1CCC[C@H]1C(=O)N[C@@H](CCC(N)=O)C(N)=O [TAT, reference compound]
EC50 (Human red blood cells; [4]): 79 ± 6 µM

Molecule: N=C(N)NCCC[C@H](NC(=O)CNC(=O)[C@@H](N)Cc1ccc(O)cc1)C(=O)N[C@@H](CCCCN)C(=O)N[C@@H](CCCCN)C(=O)N[C@@H](CCCNC(=N)N)C(=O)N[C@@H](CCCNC(=N)N)C(=O)N[C@@H](CCC(N)=O)C(=O)N[C@@H](CCCNC(=N)N)C(=O)N[C@@H](CCCNC(=N)N)C(=O)N[C@@H](CCCNC(=N)N)C(=O)N1CCC[C@H]1C(=O)N[C@@H](CCC(N)=O)C(=O)N[C@@H](CSc1ccc([N+](=O)[O-])c2nsnc12)C(N)=O [TAT-SNBD]
EC50 (Human red blood cells; [4]): 53 ± 2 µM

Molecule: CC[C@H](C)[C@H](NC(=O)[C@H](CCCCN)NC(=O)[C@@H](NC(=O)[C@H](CCC(N)=O)NC(=O)[C@@H](N)CCCNC(=N)N)[C@@H](C)CC)C(=O)N[C@@H](Cc1c[nH]c2ccccc12)C(=O)N[C@@H](Cc1ccccc1)C(=O)N[C@@H](CCC(N)=O)C(=O)N[C@@H](CC(N)=O)C(=O)N[C@@H](CCCNC(=N)N)C(=O)N[C@@H](CCCNC(=N)N)C(=O)N[C@@H](CCSC)C(=O)N[C@@H](CCCCN)C(=O)N[C@@H](Cc1c[nH]c2ccccc12)C(=O)N[C@@H](CCCCN)C(=O)N[C@@H](CCCCN)C(N)=O [penetratin, reference compound]
EC50 (Human red blood cells; [4]): 34 ± 5 µM

Molecule: CC[C@H](C)[C@H](NC(=O)[C@H](CCCCN)NC(=O)[C@@H](NC(=O)[C@H](CCC(N)=O)NC(=O)[C@@H](N)CCCNC(=N)N)[C@@H](C)CC)C(=O)N[C@@H](Cc1c[nH]c2ccccc12)C(=O)N[C@@H](Cc1ccccc1)C(=O)N[C@@H](CCC(N)=O)C(=O)N[C@@H](CC(N)=O)C(=O)N[C@@H](CCCNC(=N)N)C(=O)N[C@@H](CCCNC(=N)N)C(=O)N[C@@H](CCSC)C(=O)N[C@@H](CCCCN)C(=O)N[C@@H](Cc1c[nH]c2ccccc12)C(=O)N[C@@H](CCCCN)C(=O)N[C@@H](CCCCN)C(=O)N[C@@H](CSc1ccc([N+](=O)[O-])c2nsnc12)C(N)=O [penetratin-SNBD]
EC50 (Human red blood cells; [5]): 27 ± 3 µM

Molecule: CC[C@H](C)[C@H](NC(=O)[C@H](CCCCN)NC(=O)[C@H](CC(N)=O)NC(=O)[C@H](CCCNC(=N)N)NC(=O)[C@H](Cc1ccccc1)NC(=O)[C@H](CCCCN)NC(=O)[C@H](CCCNC(=N)N)NC(=O)[C@H](CC(C)C)NC(=O)[C@H](CCCNC(=N)N)NC(=O)[C@H](CCCCN)NC(=O)[C@H](CCCNC(=N)N)NC(=O)[C@H](CC(C)C)NC(=O)CN)C(=O)N[C@@H](CCCCN)C(=O)N[C@@H](CCC(=O)O)C(=O)N[C@@H](CCCCN)C(=O)N[C@@H](CSc1ccc([N+](=O)[O-])c2nsnc12)C(N)=O [sC18-SNBD] (H-GLRKRLRKFRNKIKEKC(X1)-NH2)
EC50 (Human red blood cells; [5]): 43 ± 3 µM

Molecule: GLRKRLRKFRNKIKEK-NH2 [sC18, reference compound]
EC50 (Human red blood cells; [4]): 70 ± 4 µM

Molecule: mCCL2-SNBD: mCCL2 labeled with SNBD at the C-terminal Cys, 9063.6 Da
internalization in presence of CCR2 antagonist ([3]; RS102895 40 μM pre-incubated 15 min): substantially reduced intracellular fluorescence emission | internalization in live macrophages ([3]; no washing steps): bright fluorescence signals distributed across the cytosol
